The results in this text go back to ChEMBL document CHEMBL1201862, “PubChem BioAssay data set” (2004).

Test systems include SR; CAKI-1; BT-549; IGROV-1; SW-620; MCF7; ACHN; HOP-92; CCRF-CEM; MDA-MB-231; HOP-62; SNB-75; SF-268; OVCAR-3; MOLT-4; MDA-N; SK-MEL-5; RPMI-8226; LOX IMVI.
Assay in all cases: DTP human tumour cell line panel, 48 h

Molecules are shown by their SMILES.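 Dose response: 5 concentrations. Exposure: 48 h. Format: 96-well plates. Endpoint: linear interpolation; highest concentration if not reached. GI50 marks 50% less growth.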 Calls of active or inactive are those of the source. Cut-off read from the data, not from the text of the source: active = GI50 up to about 1.1 µM and inactive = higher.

By GI50 is commonly meant the concentration that inhibits growth by half. Regarding `CCOC(=O)[C@@H](NC(=O)OC(C)(C)C)[C@@H](O)C(=O)OCC`, the GI50 in the experiment on SR, in the experiment on CAKI-1, with BT-549, in the experiment on IGROV-1, with SW-620 and in the experiment with MCF7 was > 100 µM (inactive) each time. Moreover, the GI50 in the experiment with ACHN, with HOP-92, in the experiment with CCRF-CEM, with MDA-MB-231, in the experiment with HOP-62 and with SNB-75 was > 100 µM (inactive) throughout. Moreover, the GI50 with SF-268, in the experiment on OVCAR-3, in the experiment on MOLT-4, in the experiment on MDA-N, in the experiment with SK-MEL-5 and in the experiment on RPMI-8226 was > 100 µM (inactive) throughout. The GI50 with LOX IMVI was > 100 µM (inactive).

Take `O=C(/C=C/c1cccc(Br)c1)c1ccc(Cl)cc1`: the GI50 in the experiment on SR was 2.42 µM (inactive); with CAKI-1, 14 µM (inactive); in the experiment on BT-549, 17 µM (inactive); in the experiment with IGROV-1, 17.1 µM (inactive); in the experiment on SW-620, 2.95 µM (inactive); with MCF7, 4.38 µM (inactive). Also, the GI50 was 16.8 µM (inactive) with ACHN; 15 µM (inactive) with HOP-92; 4.5 µM (inactive) in the experiment on CCRF-CEM; 18 µM (inactive) with MDA-MB-231; 19.2 µM (inactive) in the experiment on HOP-62; 13.6 µM (inactive) in the experiment on SNB-75. The GI50 in the experiment with SF-268 is 17.5 µM (inactive); in the experiment on OVCAR-3 it was 16.7 µM (inactive); with MOLT-4, 5.93 µM (inactive); in the experiment with MDA-N, 6.32 µM (inactive); in the experiment with SK-MEL-5, 14.2 µM (inactive); with RPMI-8226, 2.08 µM (inactive). In addition, in the experiment on LOX IMVI, the GI50 was 12.6 µM (inactive).

For `Nc1nc(-c2ccccc2)cc(-c2ccc(OCc3ccccc3)cc2O)n1`, the GI50 in the experiment with SR is 39.8 µM (inactive); in the experiment with CAKI-1, 57.1 µM (inactive); in the experiment with BT-549, 28.8 µM (inactive); in the experiment on IGROV-1 it was 32.7 µM (inactive); in the experiment with SW-620, 39.4 µM (inactive); in the experiment on MCF7, 32.1 µM (inactive). For the same compound, the GI50 in the experiment with ACHN is 31.3 µM (inactive); with HOP-92 it was 38.7 µM (inactive); in the experiment with CCRF-CEM it was 17 µM (inactive); in the experiment on MDA-MB-231, 70.3 µM (inactive); with HOP-62, 83.9 µM (inactive); with SNB-75, 67.6 µM (inactive). Besides, the GI50 with SF-268 was 44.3 µM (inactive); with OVCAR-3, 26.7 µM (inactive); in the experiment with MOLT-4, 48.4 µM (inactive); in the experiment on MDA-N, 39.3 µM (inactive); in the experiment with SK-MEL-5, 17.5 µM (inactive); in the experiment with RPMI-8226 it was 22.7 µM (inactive). Further, the GI50 in the experiment on LOX IMVI was 33.9 µM (inactive).

Turning to `BC(=O)NC(CC(C)C)C(=O)NCC(=O)NC1c2ccsc2C(=O)C1O.CN(C)C` (stereo not given), the GI50 in the experiment with SR was > 100 µM (inactive); with CAKI-1, > 100 µM (inactive); with BT-549, > 100 µM (inactive); in the experiment on IGROV-1, > 100 µM (inactive); in the experiment on SW-620 it was > 100 µM (inactive); with MCF7 it was 2.37 µM (inactive). The GI50 in the experiment with ACHN is > 100 µM (inactive); in the experiment on HOP-92, > 100 µM (inactive); in the experiment on CCRF-CEM it was 31.6 µM (inactive); with MDA-MB-231 it was > 100 µM (inactive); in the experiment on HOP-62, > 100 µM (inactive); with SNB-75, > 100 µM (inactive). In addition, the GI50 in the experiment on SF-268, with OVCAR-3, in the experiment with MOLT-4, with MDA-N, in the experiment on SK-MEL-5 and in the experiment with RPMI-8226 was > 100 µM (inactive) throughout. In addition, the GI50 in the experiment on LOX IMVI was > 100 µM (inactive).

Turning to `O=C(/N=S(/NC(=O)c1ccccc1)C(Cl)(Cl)Cl)c1ccccc1` (stereo not given), the GI50 in the experiment with SR is 17.1 µM (inactive); in the experiment on CAKI-1, 20.9 µM (inactive); in the experiment with BT-549 it was 12.7 µM (inactive); in the experiment on IGROV-1, 8.47 µM (inactive); in the experiment with SW-620, 3.57 µM (inactive); in the experiment on MCF7 it was 24 µM (inactive). Also, the GI50 is 18.4 µM (inactive) in the experiment on ACHN; 32.3 µM (inactive) in the experiment on HOP-92; 2.7 µM (inactive) with CCRF-CEM; 33.7 µM (inactive) in the experiment on MDA-MB-231; 19.5 µM (inactive) in the experiment on HOP-62; 40.6 µM (inactive) with SNB-75. Also, the GI50 in the experiment with SF-268 is 50.2 µM (inactive); in the experiment on OVCAR-3 it was 31.2 µM (inactive); in the experiment with MOLT-4 it was 6.97 µM (inactive); in the experiment on MDA-N it was 29.8 µM (inactive); with SK-MEL-5 it was 14.3 µM (inactive); in the experiment with RPMI-8226 it was 41.2 µM (inactive). In the experiment on LOX IMVI, the GI50 was 10.6 µM (inactive).

As to `CSc1ccc2c(c1)C(N1CCN(C)CC1)Cc1ccccc1S2` (stereo not given), the GI50 was 2.3 µM (inactive) with SR; 3.65 µM (inactive) with CAKI-1; 4.33 µM (inactive) in the experiment on BT-549; 2.17 µM (inactive) in the experiment with IGROV-1; 6.01 µM (inactive) in the experiment with SW-620; 2.36 µM (inactive) in the experiment on MCF7. Besides, the GI50 with ACHN is 3.25 µM (inactive); in the experiment on HOP-92 it was 1.49 µM (inactive); in the experiment on CCRF-CEM, 0.219 µM (active); in the experiment with MDA-MB-231 it was 3.47 µM (inactive); in the experiment on HOP-62 it was 8.07 µM (inactive); in the experiment with SNB-75, < 0.01 µM (active). In addition, the GI50 in the experiment on SF-268 was 3.43 µM (inactive); in the experiment with OVCAR-3, 8.91 µM (inactive); in the experiment on MOLT-4 it was 2.47 µM (inactive); with MDA-N it was 3.07 µM (inactive); with SK-MEL-5, 1.82 µM (inactive); with RPMI-8226, 1.91 µM (inactive). Moreover, the GI50 in the experiment with LOX IMVI was 2.01 µM (inactive).

For the compound `COc1cc(O)c(C(=O)/C=C/c2ccc(O)cc2)cc1Oc1ccc(/C=C/C(=O)c2ccc(O)cc2O)cc1` [RHUSCHALCONE III], the GI50 is 5.01 µM (inactive) in the experiment with SR; 14.2 µM (inactive) in the experiment on CAKI-1; 8.79 µM (inactive) in the experiment on BT-549; 7.66 µM (inactive) with IGROV-1; 11.2 µM (inactive) in the experiment on SW-620; 8.69 µM (inactive) in the experiment on MCF7. In addition, the GI50 in the experiment on ACHN is 8.75 µM (inactive); with HOP-92, 11.4 µM (inactive); in the experiment with CCRF-CEM, 7.29 µM (inactive); with MDA-MB-231, 15 µM (inactive); in the experiment with HOP-62 it was 10.8 µM (inactive); in the experiment on SNB-75, 12.6 µM (inactive). In addition, the GI50 in the experiment on SF-268 was 8.81 µM (inactive); in the experiment on OVCAR-3, 8.07 µM (inactive); with MOLT-4, 11.3 µM (inactive); in the experiment on MDA-N, 8.93 µM (inactive); with SK-MEL-5, 7.36 µM (inactive); in the experiment on RPMI-8226, 6.79 µM (inactive). Besides, the GI50 in the experiment with LOX IMVI was 8.45 µM (inactive).

With `O=c1oc2ccc3ccccc3c2cc1-c1cn2ccsc2n1`, the GI50 in the experiment with SR was 9.27 µM (inactive); in the experiment on CAKI-1 it was 23.8 µM (inactive); in the experiment on BT-549, 16.8 µM (inactive); in the experiment with IGROV-1, 0.646 µM (active); in the experiment on SW-620 it was 16.8 µM (inactive); with MCF7, 3.03 µM (inactive). Moreover, the GI50 with ACHN was 16.1 µM (inactive); in the experiment with HOP-92 it was 13 µM (inactive); in the experiment on CCRF-CEM it was 3.89 µM (inactive); in the experiment with MDA-MB-231 it was 14.1 µM (inactive); with HOP-62 it was 34.5 µM (inactive); in the experiment with SNB-75, > 100 µM (inactive). Also, the GI50 was 24.8 µM (inactive) in the experiment on SF-268; 17.9 µM (inactive) with OVCAR-3; 3.41 µM (inactive) in the experiment on MOLT-4; 21.4 µM (inactive) in the experiment with MDA-N; 15.4 µM (inactive) in the experiment on SK-MEL-5; 11.5 µM (inactive) with RPMI-8226. The GI50 with LOX IMVI is 15.8 µM (inactive).

As to `C[C@H](c1ccccc1)n1c(N)c(-c2nc3ccccc3s2)c2ccc([N+](=O)[O-])cc2c1=O`, the GI50 was 1.44 µM (inactive) in the experiment with SR; 15.4 µM (inactive) in the experiment with CAKI-1; 11.5 µM (inactive) in the experiment with BT-549; 8.13 µM (inactive) with IGROV-1; 4.14 µM (inactive) with SW-620; 9.27 µM (inactive) in the experiment with MCF7. The GI50 in the experiment with ACHN is 10.1 µM (inactive); in the experiment on HOP-92 it was 1.59 µM (inactive); in the experiment on CCRF-CEM it was 0.773 µM (active); with MDA-MB-231 it was 3.89 µM (inactive); with HOP-62 it was 11.6 µM (inactive); in the experiment with SNB-75, 4.58 µM (inactive). The GI50 in the experiment on SF-268 was 6.27 µM (inactive); with OVCAR-3, 4.57 µM (inactive); in the experiment with MOLT-4, 2.32 µM (inactive); with MDA-N it was 13.6 µM (inactive); with SK-MEL-5 it was 4.8 µM (inactive); in the experiment on RPMI-8226, 0.324 µM (active). Besides, in the experiment on LOX IMVI, the GI50 is 4.46 µM (inactive).

Turning to `NC(=O)[C@H](Cc1ccc(O)cc1)NC1=C(Cl)C(=O)c2c(O)ccc(O)c2C1=O`, the GI50 with SR was 1.34 µM (inactive); in the experiment on CAKI-1, 2.37 µM (inactive); in the experiment with BT-549, 2.47 µM (inactive); in the experiment on IGROV-1 it was 2.07 µM (inactive); in the experiment with SW-620 it was 1.06 µM (active); with MCF7, 1.32 µM (inactive). Further, the GI50 in the experiment with ACHN was 2.67 µM (inactive); in the experiment on HOP-92, 2.13 µM (inactive); in the experiment with CCRF-CEM it was 0.241 µM (active); with MDA-MB-231 it was 2.51 µM (inactive); in the experiment on HOP-62 it was > 10 µM (inactive); in the experiment on SNB-75 it was 4.93 µM (inactive). Besides, the GI50 with SF-268 was 3.7 µM (inactive); in the experiment with OVCAR-3, 2.14 µM (inactive); in the experiment with MOLT-4 it was 0.55 µM (active); in the experiment on MDA-N, 1.93 µM (inactive); in the experiment on SK-MEL-5, 1.47 µM (inactive); in the experiment with RPMI-8226 it was 2.25 µM (inactive). Further, in the experiment with LOX IMVI, the GI50 is 1.61 µM (inactive).
